Patent USRE32311E
Values after ≈ are worked out from the molar mass of the structure shown.

Experiments:
[1] = toxicity, LD50 in mice; type: in vivo; conditions: administered intravenously
[2] = system: Streptococcus Group D 9960; assay: agar-dilution MIC; type: cell-based
[3] = system: Staphylococcus epidermidis EP12; assay: agar-dilution MIC; type: cell-based
Experimental: (§1) In Table VII activity is measured by the minimal inhibitory concentration (MIC), i.e. the lowest concentration of compound at which growth of the microorganism is inhibited by the test compound.

[4] = system: Staphylococcus aureus V41; assay: agar-dilution MIC; type: cell-based; conditions: Staphylococcus aureus V41, penicillin-resistant strain
Experimental: as §1

[5] = system: Streptococcus pyogenes; assay: experimental bacterial infection in mice, ED50; type: in vivo; conditions: two doses
[6] = system: Streptococcus Group D X66; assay: agar-dilution MIC; type: cell-based
Experimental: as §1

[7] = system: Staphylococcus epidermidis EP11; assay: agar-dilution MIC; type: cell-based
Experimental: as §1

[8] = system: Staphylococcus aureus X1.1; assay: agar-dilution MIC; type: cell-based
[9] = system: Staphylococcus aureus X400; assay: agar-dilution MIC; type: cell-based; conditions: Staphylococcus aureus X400, methicillin-resistant strain
Experimental: as §1

[10] = system: Streptococcus pneumoniae Park I; type: cell-based; conditions: agar dilution
Experimental: as §1

[11] = system: Streptococcus pyogenes C203; assay: agar-dilution MIC; type: cell-based
Experimental: as §1

[12] = system: Staphylococcus aureus; assay: experimental bacterial infection in mice, ED50; type: in vivo; conditions: two doses

Row | SMILES | LD50 in Mice [1] [mg/kg] | MIC [2] [µg/mL] | MIC [3] [µg/mL] | MIC [4] [µg/mL] | ED50 Streptococcus pyogenes Oral [5] [mg/kg × 2] | MIC [6] [µg/mL] | MIC [7] [µg/mL] | MIC [8] [µg/mL] | MIC [9] [µg/mL] | MIC [10] [µg/mL] | MIC [11] [µg/mL] | ED50 Staphylococcus aureus Subcutaneous [12] [mg/kg × 2] | ED50 Streptococcus pyogenes Subcutaneous [5] [mg/kg × 2]
1 | CCCCCCCCCCCC(=O)N[C@H](Cc1ccccc1)C(=O)N[C@@H](Cc1c[nH]c2ccccc12)C(=O)N[C@H](CC(N)=O)C(=O)N[C@@H](CC(=O)O)C(=O)N[C@@H]1C(=O)NCC(=O)N[C@@H](CCCN)C(=O)N[C@@H](CC(=O)O)C(=O)N[C@H](C)C(=O)N[C@@H](CC(=O)O)C(=O)NCC(=O)N[C@H](CO)C(=O)N[C@@H]([C@H](C)CC(=O)O)C(=O)N[C@@H](CC(=O)c2ccccc2N)C(=O)O[C@@H]1C [Compound 1] | 250 | 0.5 (≈ 0.278 µM) | 1 (≈ 0.557 µM) | 0.5 (≈ 0.278 µM) | > 200 | 1 (≈ 0.557 µM) | 2 (≈ 1.11 µM) | 0.5 (≈ 0.278 µM) | 1 (≈ 0.557 µM) |  |  |  | 
2 | CCCCCCCCCCCC(=O)NCCCCC(=O)N[C@@H](Cc1c[nH]c2ccccc12)C(=O)N[C@H](CC(N)=O)C(=O)N[C@@H](CC(=O)O)C(=O)N[C@@H]1C(=O)NCC(=O)N[C@@H](CCCN)C(=O)N[C@@H](CC(=O)O)C(=O)N[C@H](C)C(=O)N[C@@H](CC(=O)O)C(=O)NCC(=O)N[C@H](CO)C(=O)N[C@@H]([C@H](C)CC(=O)O)C(=O)N[C@@H](CC(=O)c2ccccc2N)C(=O)O[C@@H]1C [Compound 2] | > 600 | 8 (≈ 4.58 µM) | 2 (≈ 1.14 µM) | 4 (≈ 2.29 µM) | 117 | 32 (≈ 18.3 µM) | 4 (≈ 2.29 µM) | 4 (≈ 2.29 µM) | 4 (≈ 2.29 µM) | 4 (≈ 2.29 µM) | 1 (≈ 0.572 µM) |  | 
3 | CCCCCCCCCCCC(=O)NCCCCCCCCCCC(=O)N[C@@H](Cc1c[nH]c2ccccc12)C(=O)N[C@H](CC(N)=O)C(=O)N[C@@H](CC(=O)O)C(=O)N[C@@H]1C(=O)NCC(=O)N[C@@H](CCCN)C(=O)N[C@@H](CC(=O)O)C(=O)N[C@H](C)C(=O)N[C@@H](CC(=O)O)C(=O)NCC(=O)N[C@H](CO)C(=O)N[C@@H]([C@H](C)CC(=O)O)C(=O)N[C@@H](CC(=O)c2ccccc2N)C(=O)O[C@@H]1C [Compound 3] | 600 | 8 (≈ 4.37 µM) | 8 (≈ 4.37 µM) | 2 (≈ 1.09 µM) | > 200 | 8 (≈ 4.37 µM) | 8 (≈ 4.37 µM) | 2 (≈ 1.09 µM) | 8 (≈ 4.37 µM) | 0.5 (≈ 0.273 µM) | 2 (≈ 1.09 µM) | > 18 | 6.2
4 | CCCCCCCCCCCC(=O)Nc1ccc(C(=O)N[C@@H](Cc2c[nH]c3ccccc23)C(=O)N[C@H](CC(N)=O)C(=O)N[C@@H](CC(=O)O)C(=O)N[C@@H]2C(=O)NCC(=O)N[C@@H](CCCN)C(=O)N[C@@H](CC(=O)O)C(=O)N[C@H](C)C(=O)N[C@@H](CC(=O)O)C(=O)NCC(=O)N[C@H](CO)C(=O)N[C@@H]([C@H](C)CC(=O)O)C(=O)N[C@@H](CC(=O)c3ccccc3N)C(=O)O[C@@H]2C)cc1 [Compound 4] | > 300 |  |  |  | > 200 |  |  | 4 (≈ 2.26 µM) | 8 (≈ 4.53 µM) |  |  | < 5 | 18.8
5 | CCCCCCCCCC(=O)N[C@@H](Cc1c[nH]c2ccccc12)C(=O)N[C@@H](CC(N)=O)C(=O)N[C@@H](CC(=O)O)C(=O)N[C@@H]1C(=O)NCC(=O)N[C@@H](CCCN)C(=O)N[C@@H](CC(=O)O)C(=O)N[C@H](C)C(=O)N[C@@H](CC(=O)O)C(=O)NCC(=O)N[C@H](CO)C(=O)N[C@@H]([C@H](C)CC(=O)O)C(=O)N[C@@H](CC(=O)c2ccccc2N)C(=O)O[C@@H]1C [Compound 6] |  | 2 (≈ 1.23 µM) | 2 (≈ 1.23 µM) | 2 (≈ 1.23 µM) |  | 16 (≈ 9.87 µM) | 2 (≈ 1.23 µM) | 1 (≈ 0.617 µM) | 4 (≈ 2.47 µM) | 2 (≈ 1.23 µM) | 0.5 (≈ 0.309 µM) |  | 
6 | CCCCCCCCCCCCCCCC(=O)N[C@@H](Cc1c[nH]c2ccccc12)C(=O)N[C@@H](CC(N)=O)C(=O)N[C@@H](CC(=O)O)C(=O)N[C@@H]1C(=O)NCC(=O)N[C@@H](CCCN)C(=O)N[C@@H](CC(=O)O)C(=O)N[C@H](C)C(=O)N[C@@H](CC(=O)O)C(=O)NCC(=O)N[C@H](CO)C(=O)N[C@@H]([C@H](C)CC(=O)O)C(=O)N[C@@H](CC(=O)c2ccccc2N)C(=O)O[C@@H]1C [Compound 10] | 450 | 2.1 (≈ 1.23 µM) |  |  |  |  | 2.1 (≈ 1.23 µM) |  |  | 0.25 (≈ 0.147 µM) | 0.06 (≈ 0.0352 µM) |  | 0.69
7 | CCCCCCCCC(=O)N[C@@H](Cc1ccccc1)C(=O)N[C@@H](Cc1c[nH]c2ccccc12)C(=O)N[C@H](CC(N)=O)C(=O)N[C@@H](CC(=O)O)C(=O)N[C@@H]1C(=O)NCC(=O)N[C@@H](CCCN)C(=O)N[C@@H](CC(=O)O)C(=O)N[C@H](C)C(=O)N[C@@H](CC(=O)O)C(=O)NCC(=O)N[C@H](CO)C(=O)N[C@@H]([C@H](C)CC(=O)O)C(=O)N[C@@H](CC(=O)c2ccccc2N)C(=O)O[C@@H]1C [Compound 18] | > 600 | 8 (≈ 4.56 µM) | 2 (≈ 1.14 µM) | 2 (≈ 1.14 µM) | 184 | 32 (≈ 18.2 µM) | 4 (≈ 2.28 µM) | 2 (≈ 1.14 µM) | 4 (≈ 2.28 µM) |  | 0.5 (≈ 0.285 µM) | 1.38 | 0.59
8 | CCCCCCCCCC(=O)N[C@@H](Cc1ccccc1)C(=O)N[C@@H](Cc1c[nH]c2ccccc12)C(=O)N[C@H](CC(N)=O)C(=O)N[C@@H](CC(=O)O)C(=O)N[C@@H]1C(=O)NCC(=O)N[C@@H](CCCN)C(=O)N[C@@H](CC(=O)O)C(=O)N[C@H](C)C(=O)N[C@@H](CC(=O)O)C(=O)NCC(=O)N[C@H](CO)C(=O)N[C@@H]([C@H](C)CC(=O)O)C(=O)N[C@@H](CC(=O)c2ccccc2N)C(=O)O[C@@H]1C [Compound 19, NTrp-[N-(n-Decanoyl)-L-phenylalanyl]-A-21978C Nucleus] | 600 | 2 (≈ 1.13 µM) | 0.5 (≈ 0.283 µM) | 0.5 (≈ 0.283 µM) | > 200 | 8 (≈ 4.53 µM) | 1 (≈ 0.566 µM) | 0.5 (≈ 0.283 µM) | 1 (≈ 0.566 µM) | 0.75 (≈ 0.424 µM) | 0.25 (≈ 0.141 µM) |  | 0.39
9 | CCCCCCCCCCC(=O)N[C@@H](Cc1ccccc1)C(=O)N[C@@H](Cc1c[nH]c2ccccc12)C(=O)N[C@H](CC(N)=O)C(=O)N[C@@H](CC(=O)O)C(=O)N[C@@H]1C(=O)NCC(=O)N[C@@H](CCCN)C(=O)N[C@@H](CC(=O)O)C(=O)N[C@H](C)C(=O)N[C@@H](CC(=O)O)C(=O)NCC(=O)N[C@H](CO)C(=O)N[C@@H]([C@H](C)CC(=O)O)C(=O)N[C@@H](CC(=O)c2ccccc2N)C(=O)O[C@@H]1C [Compound 20] | 400 | 2 (≈ 1.12 µM) | 2 (≈ 1.12 µM) | 0.5 (≈ 0.281 µM) | > 200 | 4 (≈ 2.24 µM) | 2 (≈ 1.12 µM) | 0.5 (≈ 0.281 µM) | 2 (≈ 1.12 µM) |  |  | 1.25 | 0.35
10 | CCCCCCCCCCCCC(=O)N[C@@H](Cc1ccccc1)C(=O)N[C@@H](Cc1c[nH]c2ccccc12)C(=O)N[C@H](CC(N)=O)C(=O)N[C@@H](CC(=O)O)C(=O)N[C@@H]1C(=O)NCC(=O)N[C@@H](CCCN)C(=O)N[C@@H](CC(=O)O)C(=O)N[C@H](C)C(=O)N[C@@H](CC(=O)O)C(=O)NCC(=O)N[C@H](CO)C(=O)N[C@@H]([C@H](C)CC(=O)O)C(=O)N[C@@H](CC(=O)c2ccccc2N)C(=O)O[C@@H]1C [Compound 21] |  | 0.25 (≈ 0.138 µM) | 2 (≈ 1.11 µM) | 0.5 (≈ 0.276 µM) | > 200 | 1 (≈ 0.553 µM) | 2 (≈ 1.11 µM) | 0.5 (≈ 0.276 µM) | 2 (≈ 1.11 µM) |  |  | 0.76 | 0.14
11 | CCCCCCCCCCC(=O)N[C@@H](Cc1ccccc1)C(=O)NCCC[C@@H]1NC(=O)CNC(=O)[C@@H](NC(=O)[C@H](CC(=O)O)NC(=O)[C@@H](CC(N)=O)NC(=O)[C@@H](N)Cc2c[nH]c3ccccc23)[C@@H](C)OC(=O)[C@H](CC(=O)c2ccccc2N)NC(=O)[C@H]([C@H](C)CC(=O)O)NC(=O)[C@@H](CO)NC(=O)CNC(=O)[C@H](CC(=O)O)NC(=O)[C@@H](C)NC(=O)[C@H](CC(=O)O)NC1=O [Compound 26] |  | 32 (≈ 18 µM) |  |  | > 200 |  |  | 8 (≈ 4.49 µM) |  |  | 1 (≈ 0.561 µM) | 9.2 | > 18
12 | CCCCCC(=O)N[C@@H](Cc1c[nH]c2ccccc12)C(=O)NCCC[C@@H]1NC(=O)CNC(=O)[C@@H](NC(=O)[C@H](CC(=O)O)NC(=O)[C@@H](CC(N)=O)NC(=O)[C@H](Cc2c[nH]c3ccccc23)NC(=O)CCCCCCCCC(C)CC)[C@@H](C)OC(=O)[C@H](CC(=O)c2ccccc2N)NC(=O)[C@H]([C@H](C)CC(=O)O)NC(=O)[C@@H](CO)NC(=O)CNC(=O)[C@H](CC(=O)O)NC(=O)[C@@H](C)NC(=O)[C@H](CC(=O)O)NC1=O (some centres unmarked) [Compound 29] | 37.5 | 32 (≈ 16.4 µM) |  |  | > 200 | 8 (≈ 4.11 µM) |  |  | 1 (≈ 0.514 µM) |  |  |  | 
